Laboratory results from PMC12188386, “Selective CBP/EP300 Bromodomain Inhibitors: Novel Epigenetic Tools to Counter TNF-α-Driven Inflammation” (JACS Au, 2025).
pKd: −log10 of the molar value.

Legend:
CBP = CBP (Homo sapiens, UniProt Q92793); assay: commercial Bromoscan assay; assay type: binding
Experimental: was used as the calibration curve. To obtain saturated solutions of the compounds of interest, in duplicates 4.4 µL of a 10 or 5 mM stock in DMSO was added to 436 µL Buffer (PBS, pH = 7.4), to give a final concentration of 100 or 50 µM. Samples were incubated on a shaker (500 rpm) at 37°C for 90 minutes and then filtered (Millex-GV 13 mm, 0.22 µm). 304 µL of the filtrate was mixed with 76 µL of acetonitrile on a dilution plate, from which 350 µL was transferred to a UV-plate and UV-absorption was read using a SpectraMax M5 (Molecular devices). The absorbance was blank-corrected and compared to the calibration curve to […]
solubility. […]
lower solubility (2) compounds respectively in a 12.5 w/v% CAPTISOL® solution in water. […] Based on the known density of 12.5 % CAPTISOL® solution (d = 1.05755 g/mL at 25 °C), the precise weight of the resulting solution and so the required amount of water by weight was calculated. […] In duplicates, aliquots of the filtrates were taken and diluted with blank 12.5 % CAPTISOL® water solution in either a 1:14 (higher sol. compounds) or 1:7 (lower sol. compounds) ratio, 350 µL was transferred to a 96-Well Plate (Greiner, UV-star) then UV absorption (240-400 nm, 10 nm steps) was measured using a SpectraMax M5 (Molecular devices). […] The calculated concentrations are available in Table S4. […]
The bromodomain concentration in the eluates was measured by qPCR. […]

[1] = tested on: TNF-α-induced cytokine expression in THP-1 cells; assay: cytokine mRNA expression by RT-qPCR; assay type: cell-based, human; conditions: 1 h co-treatment of THP-1 cells with 10 ng/mL TNF-α and 1 μM compound
Experimental: For cytokine expression determination, 5x10^5 THP-1 cells were plated on 12 well plates the day prior to treatment with 10 ng/mL recombinant human TNF -α (aa 77-233) protein (R&D systems, 10291 -TA) and compounds at a final concentration of 0.1 % DMSO. In all cases, total
RNA was extracted using the NucleoSpin® RNA kit (Machery -Nagel) and used for cDNA synthesis with the High -Capacity cDNA Reverse Transcription kit (Applied Biosystems). RT-qPCR reactions were performed using PowerSYBR™ green PCR Master Mix (Applied Biosystems) and a LightCycler® 480 (Roche). cDNA was denatured for 10 min at 95 °C followed by 40 cycles of 15 s at 95 °C and 1 min at 60 °C. Cp values were determined as the maximum of the second derivative and target gene expression was compared to that of hprt from the same sample using the 2-ΔCp method. Gene expression was then normalized to the average of the control samples from the same day, or all biological replicates. […]

[2] = tested on: immune cell recruitment to the popliteal lymph node; assay: TNF-α induced inflammation model, flow cytometry of pLN; assay type: in vivo, mouse; conditions: mice, flow cytometry 5 h post-injection of rmTNF-α, vs control group
[3] = tested on: leukemia, melanoma and breast cancer cell lines; assay: NCI-60 antiproliferation screen; assay type: cell-based, human; conditions: 10 µM
Experimental: (§1) Adapted from NCI-60 Screening Methodology, one-dose screen:20 Briefly, human tumor cell lines, grown in RPMI 1640 containing 5% FBS and 2 mM L-glutamine, were plated in 96 well plates at densities ranging from 5,000 to 40,000 cells/well 24 h prior to addition of test compounds (here 10 μM 2). 400x solutions of test compounds were prepared in DMSO, then diluted to 2x in medium supplemented with 50 μg/mL gentamicin. 100 μl of this 2x stock was added to cells previously plated in 100 μl medium, resulting in the desired final compound concentration. Cells were fixed in situ with cold TCA: untreated cells at the time of compound addition (Tz) and treated cells 48 h after addition of compound (Ti). Cells were washed, then su f rh damine s uti n μ at . w/v in acetic acid was added to each well and incubated for 10 minutes at room temperature. After washing again, the plates were air dried and bound stain solubilized with 10 mM Trizma base before absorbance was […]
(§2) Percentage growth (%Growth) was calculated as follows:
(§3) when Ti ≥ Tz, %Growth = Ti − Tz x 100 where Ti = absorbance from compound treated cells, Tz = absorbance from untreated cells at time zero, and C = absorbance from control (DMSO) treated cells. […]

BT-549 = assay: NCI-60 one-dose screen; assay type: cell-based, human; conditions: 10 µM, 48 h, Breast Cancer
Experimental: as §1, §2, §3

CCRF-CEM = assay: NCI-60 one-dose screen; assay type: cell-based, human; conditions: 10 µM, 48 h, Leukemia, relative to no-drug control and time zero
Experimental: as §1, §2, §3

RXF 393 = assay: NCI-60 one-dose screen; assay type: cell-based, human; conditions: 10 µM, 48 h, Renal Cancer, values <0 indicate lethality
Experimental: as §1, §2, §3

Sequence of CBP (Q92793 1085-1192 limits assumed): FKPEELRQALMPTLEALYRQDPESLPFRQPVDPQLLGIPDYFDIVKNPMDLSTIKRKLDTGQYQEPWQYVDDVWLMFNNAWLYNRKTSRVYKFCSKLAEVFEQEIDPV

`Cc1cc2c(NC(=O)c3cc(NC(=O)c4ccco4)cc(-c4ccn(C)n4)c3)cccc2nn1` [Compound 2] was tested, and the pKd (CBP) was 8.05, the “TNF-α-induced expression of il1β, il8, mcp-1 and tnf-α (mRNA)” value [1] was “inhibited expression to a greater extent than the less potent but more soluble inhibitor 5” and the “recruitment of lymphocytes (T and B cells), dendritic cells and neutrophils to the pLN” value [2] was “significantly inhibited the recruitment of lymphocytes”. For the same compound, the “growth of cancer cell lines (NCI-60), in words” value [3] was “strongly inhibit the growth of leukemia, melanoma and breast cancer cell lines”, the “%Growth” value (BT-549) was 33% and the “%Growth” value (CCRF-CEM) was 43%. For the same compound, the “%Growth” value (RXF 393) was -5%.
